Patent US20220244279A1, “ASSAYS AND METHODS FOR SCREENING FOR CARDIOVASCULAR DISEASE USING LDL SUBCLASSES AND ENDOTHELIAL NITRIC OXIDE/PEROXYNITRITE BALANCE” (Ohio University, priority 2019, published 2022)
“Also recorded” adds a separate entry of the source.

Test system: human umbilical vein endothelial cells (HUVECs)
Experiment: Effect of eNOS pathway modulators on LDL-stimulated NO and ONOO− release
Format: cell-based
Details: for ONOO− production after pre-treatment vs control / NO production after pre-treatment vs control: 30 min pre-treatment, then LDL subclass A, B or I 800 μg/mL; for [NO]/[ONOO−] ratio with subclass I: pre-treatment, then subclass I 800 μg/mL; for effect on ratio of [NO]/[ONOO−]: modulators of L-arginine/NO pathway
Description: Concurrent measurements of NO and ONOO^− were performed with electrochemical nanosensors (diameter: 200-300 nm). The designs of nanosensors are based on chemically modified carbon-fiber technology. Each of those sensors was made by depositing a sensing material on the tip of the carbon fiber. A conductive film of polymeric nickel (II) tetrakis (3-methoxy-4hydroxy-phenyl) porphyrinic was used for the NO sensor and a polymeric film of Mn (III)-paracyclophanyl-porphyrin was used for the ONOO^− sensor. NO and ONOO^− release from its basal level were measured by using amperometry with time (detection limit of 1 nmol/L and resolution time <50 ms). Each sensor was calibrated by using linear calibration curves from 50 nmol/L to 1000 nmol/L and/or standard addition methods before and after measurements with aliquots of NO or ONOO^− standard solutions, respectively.
Endothelial cells were seeded to 24 well plates and cultured in complete medium until confluent monolayer formed. Then the study was carried out as follows:
A control group was incubated in EBM only. After incubation, endothelial cells were stimulated with direct injection of subclasses A, B and I (800 μg/mL), and the release of NO/ONOO^− was measured with nanosensors.

| Structure (SMILES) | ONOO− production after pre-treatment vs control | [NO]/[ONOO−] ratio with subclass I | NO production after pre-treatment vs control | effect on ratio of [NO]/[ONOO−] | decrease of ONOO− concentration (VAS2870 10 μmol/L, LDL 800 μg/mL) |
| --- | --- | --- | --- | --- | --- |
| COC(=O)[C@@H](N)CCCNC(=N)N[N+](=O)[O-] [L-NAME, L-N^G-arginine methyl ester] | diminished | lower than one |  |  |  |
| N=C(N)NCCC[C@H](N)C(=O)O [L-arginine] | diminished; also recorded: decrease ONOO^− generation | greater than one | increase NO production | favorably increasing the ratio of [NO]/[ONOO^−] |  |
| c1ccc(Cn2nnc3c(Sc4nc5ccccc5o4)ncnc32)cc1 [VAS2870] | diminished |  |  |  | 20-27 % of control group |
| C[C@H](O)C(=O)C1=Nc2c(nc(N)[nH]c2=O)NC1 [sepiapterin] | diminished; also recorded: lower level of ONOO^− | greater than one | higher level of NO | favorably increasing the ratio of [NO]/[ONOO^−] |  |
